Experimental data: ChEMBL document CHEMBL1159161, “Synthesis and biological activities of truncated acridone: Structure-activity relationship studies of cytotoxic 5-hydroxy-4-quinolone” (Bioorg Med Chem Lett, 1997)

Columns and labels:
L1210 = assay: In vitro antitumor activity against L1210 (murine leukemia) cells.; assay type: functional, cell-based; details: Mus musculus
HL-60 = assay: In vitro antitumor activity against HL60 (Human leukemia) cells.; assay type: functional, cell-based
Human alphaherpesvirus 2 = assay: Antiviral activity against herpes simplex virus-2.; assay type: functional, organism-based
Human alphaherpesvirus 1 = assay: Antiviral activity against herpes simplex virus-1.; assay type: functional, organism-based

Compound	IC50 (L1210)	IC50 (HL-60)	IC50 (Human alphaherpesvirus 2)	IC50 (Human alphaherpesvirus 1)
COc1cc(C(F)(F)F)c2c(O)ccnc2c1	> 40 µM	> 30 µM	29.4 µM	29.4 µM
COc1c(OC)c(OC)c2c(c1O)c(=O)c1ccc(O)c(OC)c1n2C [GLYFOLINE]	26.5 µM	1.4 µM	–	–
COc1cc(OC)c2c(=O)cc[nH]c2c1	> 40 µM	> 30 µM	–	–
COc1ccc(O)c2c(=O)ccn(C)c12	> 40 µM	> 30 µM	> 100 µM	> 100 µM
COc1cc2c(c(OC)c1OC)c(=O)ccn2C	> 40 µM	> 30 µM	> 100 µM	> 100 µM
Oc1ccnc2cc(C(F)(F)F)cc(O)c12	> 40 µM	> 30 µM	–	–
COc1cc(OC)c2c(=O)ccn(C)c2c1	> 40 µM	> 30 µM	> 100 µM	> 100 µM
Oc1cccc2nccc(O)c12	> 40 µM	> 30 µM	83 µM	54 µM
COc1cc(C(F)(F)F)cc2nccc(O)c12	> 40 µM	> 30 µM	> 100 µM	> 100 µM
Nc1nc2c(ncn2COCCO)c(=O)[nH]1 [ACYCLOVIR]	–	–	2.1 µM	0.2 µM
COc1cc2c(=O)ccn(C)c2cc1OC	> 40 µM	> 30 µM	> 100 µM	> 100 µM
COc1cc2nccc(O)c2c(O)c1OC	> 40 µM	> 30 µM	> 100 µM	> 100 µM
Nc1ccn([C@@H]2O[C@H](CO)[C@@H](O)[C@@H]2O)c(=O)n1 [CYTARABINE]	–	–	2 µM	0.3 µM
COc1cc2c(c(O)c1OC)c(=O)ccn2C	> 40 µM	> 30 µM	> 100 µM	> 100 µM
COc1ccc2c(O)ccnc2c1	> 40 µM	> 30 µM	> 100 µM	> 100 µM
COc1cc2nccc(O)c2cc1OC	> 40 µM	> 30 µM	> 100 µM	> 100 µM
COc1cc2nccc(O)c2c(OC)c1OC	> 40 µM	> 30 µM	> 100 µM	> 100 µM

Results, then the compound that gave them:

IC50 (L1210)	IC50 (HL-60)	IC50 (Human alphaherpesvirus 2)	IC50 (Human alphaherpesvirus 1)	Compound
> 40 µM	> 30 µM	> 100 µM	> 100 µM	COc1ccc(C)c2nccc(O)c12
–	17.7 µM	> 100 µM	82.6 µM	COc1ccc(O)c2c(O)ccnc12
> 40 µM	> 30 µM	> 100 µM	> 100 µM	COc1cc2c(O)ccnc2cc1O
> 40 µM	> 30 µM	–	–	COc1cc(O)c2c(O)ccnc2c1
> 40 µM	> 30 µM	> 100 µM	> 100 µM	COc1ccc(Cl)c2nccc(O)c12
> 40 µM	> 30 µM	> 100 µM	> 100 µM	COc1ccc(OC)c2c(O)ccnc12
> 40 µM	> 30 µM	> 100 µM	27.1 µM	Cc1ccc(O)c2c(O)ccnc12
